According to patent US8952162B2, “Triazolopyridines as phosphodiesterase inhibitors for treatment of dermal diseases” (Leo Pharma A/S, priority 2008, dated 2015):

target: Human recombinant PDE4 (Genbank accession no NM—006203) (Homo sapiens, UniProt Q08499); test: PDE4 assay (SPA, cAMP cleavage); type: biochemical; conditions: Example 52; human recombinant PDE4, 1 hour incubation, cAMP 1×10^-5M, test compound up to 10 μM; read-out: PDE4 IC50 range
Description: At the end of the incubation, the cleavage of the substrate was evaluated by the binding of the AMP product to SPA beads, which generate chemoluminescence when bound to the radioactive tracer. The AMP product inhibited the binding of the radioactive tracer to the beads, and the luminescent signal was competed.

Human recombinant PDE4 (Genbank accession no NM—006203), sequence (Q08499 1-673 isoform Q08499-2): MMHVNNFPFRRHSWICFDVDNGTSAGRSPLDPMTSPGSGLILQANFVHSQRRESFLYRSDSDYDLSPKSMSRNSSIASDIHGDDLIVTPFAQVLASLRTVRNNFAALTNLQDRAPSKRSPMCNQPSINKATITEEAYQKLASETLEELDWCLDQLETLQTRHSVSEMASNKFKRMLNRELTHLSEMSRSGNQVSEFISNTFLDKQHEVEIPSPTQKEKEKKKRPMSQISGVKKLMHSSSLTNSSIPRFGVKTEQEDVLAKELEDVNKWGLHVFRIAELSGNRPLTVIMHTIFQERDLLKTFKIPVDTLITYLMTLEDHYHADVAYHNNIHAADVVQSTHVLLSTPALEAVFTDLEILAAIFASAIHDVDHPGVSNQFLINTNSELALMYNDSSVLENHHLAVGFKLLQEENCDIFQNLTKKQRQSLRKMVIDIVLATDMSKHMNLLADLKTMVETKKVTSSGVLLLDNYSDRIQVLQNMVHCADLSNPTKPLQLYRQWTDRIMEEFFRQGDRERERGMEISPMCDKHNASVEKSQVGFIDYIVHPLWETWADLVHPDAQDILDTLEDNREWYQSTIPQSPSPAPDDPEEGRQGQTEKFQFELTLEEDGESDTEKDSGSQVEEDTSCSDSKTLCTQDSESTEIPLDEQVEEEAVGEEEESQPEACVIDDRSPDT

Compound	IC50
COc1ccc(-c2ccc(CNC(C)=O)cc2)n2nc(C3CC3)nc12 [Compound 129, N-[4-(2-Cyclopropyl-8-methoxy-[1,2,4]triazolo[1,5-a]pyridin-5-yl)-benzyl]-acetamide]	> 1 µM
COc1ccc(-c2cccnc2)n2nc(C3CC3)nc12 [Compound 118, 2-Cyclopropyl-8-methoxy-5-pyridin-3-yl-[1,2,4]triazolo[1,5-a]pyridine]	< 0.5 µM
CCCCOc1cccc(-c2ccc(OC)c3nc(C4CC4)nn23)c1 [Compound 124, 5-(3-Butoxy-phenyl)-2-cyclopropyl-8-methoxy-[1,2,4]triazolo[1,5-a]pyridine]	< 0.5 µM
COc1ccc(-c2cccc(NC(C)=O)c2)n2nc(C3CC3)nc12 [Compound 107, N-[3-(2-Cyclopropyl-8-methoxy-[1,2,4]triazolo[1,5-a]pyridin-5-yl)-phenyl]-acetamide]	> 1 µM
COc1ccc(-c2ccc(S(C)(=O)=O)cc2)n2nc(C3CC3)nc12 [Compound 120, 2-Cyclopropyl-5-(4-methanesulfonyl-phenyl)-8-methoxy-[1,2,4]triazolo[1,5-a]pyridine]	> 1 µM
COc1ccc(-c2ccc(C(F)(F)F)cc2)n2nc(C3CC3)nc12 [Compound 104, 2-Cyclopropyl-8-methoxy-5-(4-trifluoromethyl-phenyl)-[1,2,4]triazolo[1,5-a]pyridine]	0.5 to 1 µM
COc1ccc(-c2ccccc2F)n2nc(C3CC3)nc12 [Compound 121, 2-Cyclopropyl-5-(2-fluoro-phenyl)-8-methoxy-[1,2,4]triazolo[1,5-a]pyridine]	0.5 to 1 µM
COc1ccc(-c2cncnc2)n2nc(C3CC3)nc12 [Compound 111, 2-Cyclopropyl-8-methoxy-5-pyrimidin-5-yl-[1,2,4]triazolo[1,5-a]pyridine]	0.5 to 1 µM
COc1ccc(-c2cccs2)n2nc(C3CC3)nc12 [Compound 106, 2-Cyclopropyl-8-methoxy-5-thiophen-2-yl-[1,2,4]triazolo[1,5-a]pyridine]	< 0.5 µM
COc1ccc(-c2cccc(OC(F)(F)F)c2)n2nc(C3CC3)nc12 [Compound 108, 2-Cyclopropyl-8-methoxy-5-(3-trifluoromethoxy-phenyl)-[1,2,4]triazolo[1,5-a]pyridine]	< 0.5 µM

same assay, conditions: Example 53; PDE4 assay as in example 52; read-out: PDE4 IC50 range

Compound	IC50
COc1ccc(-c2ccc(C#N)cc2)n2nc(C3(C(N)=O)CC3)nc12 [Compound 148, 1-[5-(4-Cyano-phenyl)-8-methoxy-[1,2,4]triazolo[1,5-a]pyridin-2-yl]-cyclopropanecarboxylic acid amide]	< 0.5 µM
COc1ccc(-c2cccc(C#N)c2)n2nc(C3(C(=O)N4CCOCC4)CC3)nc12 [Compound 196, 3-{8-Methoxy-2-[1-(morpholine-4-carbonyl)-cyclopropyl]-[1,2,4]triazolo-[1,5-a]pyridin-5-yl}-benzonitrile]	0.5 to 1 µM
COc1ccc(-c2ccc(C#N)cc2)n2nc(C3(C(=O)N4CCOCC4)CC3)nc12 [Compound 205, 4-{8-Methoxy-2-[1-(morpholine-4-carbonyl)-cyclopropyl]-[1,2,4]triazolo[1,5-a]pyridin-5-yl}-benzonitrile]	> 1 µM
COc1ccc(-c2cccc(C#N)c2)n2nc(C3(COC(=O)N4CCCC4)CC3)nc12 [Compound 151, Pyrrolidine-1-carboxylic acid 1-[5-(3-cyano-phenyl)-8-methoxy-[1,2,4]triazolo[1,5-a]pyridin-2-yl]-cyclopropylmethyl ester]	< 0.5 µM
COc1ccc(-c2cccc3c2CCC3=O)n2nc(C3(C(=O)NCc4ccccc4)CC3)nc12 [Compound 172, 1-[8-Methoxy-5-(1-oxo-indan-4-yl)-[1,2,4]triazolo[1,5-a]pyridin-2-yl]-cyclopropanecarboxylic acid benzylamide]	< 0.5 µM
COc1ccc(-c2cncc(C#N)c2)n2nc(C3(C(=O)NCc4ccccc4)CC3)nc12 [Compound 173, 1-[5-(5-Cyano-pyridin-3-yl)-8-methoxy-[1,2,4]triazolo[1,5-a]pyridin-2-yl]-cyclopropanecarboxylic acid benzylamide]	< 0.5 µM
CCCNC(=O)OCC1(c2nc3c(OC)ccc(-c4cncc(C#N)c4)n3n2)CC1 [Compound 236, Propyl-carbamic acid 1-[5-(5-cyano-pyridin-3-yl)-8-methoxy-[1,2,4]triazolo[1,5-a]pyridin-2-yl]-cyclopropylmethyl ester]	< 0.5 µM
COc1ccc(-c2ccc(C#N)cc2)n2nc(C3(C(=O)O)CC3)nc12 [Compound 147, 1-[5-(4-Cyano-phenyl)-8-methoxy-[1,2,4]triazolo[1,5-a]pyridin-2-yl]-cyclopropanecarboxylic acid]	> 1 µM
COc1ccc(-c2cccc(C#N)c2)n2nc(C3(CNC(=O)N4CCCC4)CC3)nc12 [Compound 156, Pyrrolidine-1-carboxylic acid {1-[5-(3-cyano-phenyl)-8-methoxy-[1,2,4]triazolo[1,5-a]pyridin-2-yl]-cyclopropylmethyl}-amide]	< 0.5 µM
COc1ccc(-c2cccc(C#N)c2)n2nc(C3(C(=O)NCCS(N)(=O)=O)CC3)nc12 [Compound 198, 1-[5-(3-Cyano-phenyl)-8-methoxyl-[1,2,4]triazolo[1,5-a]pyridin-2-yl]-cyclopropanecarboxylic acid (2-sulfamoyl-ethyl)-amide]	< 0.5 µM
COc1ccc(-c2cccc(C#N)c2)n2nc(C3(C(=O)NCc4ccccc4)CC3)nc12 [Compound 197, 1-[5-(3-Cyano-phenyl)-8-methoxyl-[1,2,4]triazolo[1,5-a]pyridin-2-yl]-cyclopropanecarboxylic acid benzylamide]	< 0.5 µM
CCOC(=O)C1(c2nc3c(OC)ccc(-c4cccc(C(C)=O)c4)n3n2)CC1 [Compound 190, 1-[5-(3-Acetyl-phenyl)-8-methoxy-[1,2,4]triazolo[1,5-a]pyridin-2-yl]-cyclopropanecarboxylic acid ethyl ester]	< 0.5 µM
COc1ccc(-c2ccc(C#N)cc2)n2nc(C3(C(=O)NC(C)C)CC3)nc12 [Compound 209, 1-[5-(4-Cyano-phenyl)-8-methoxy-[1,2,4]triazolo[1,5-a]pyridin-2-yl]-cyclopropanecarboxylic acid isopropylamide]	< 0.5 µM
COc1ccc(-c2cccc3c2CCC3=O)n2nc(C3(C(=O)NC(C)C)CC3)nc12 [Compound 180, 1-[8-Methoxy-5-(1-oxo-indan-4-yl)-[1,2,4]triazolo[1,5-a]pyridin-2-yl]-cyclopropanecarboxylic acid isopropylamide]	< 0.5 µM
COc1ccc(-c2cccc3c2CCC3=O)n2nc(C3(C(=O)NCCS(C)(=O)=O)CC3)nc12 [Compound 183, 1-[8-Methoxy-5-(1-oxo-indan-4-yl)-[1,2,4]triazolo[1,5-a]pyridin-2-yl]-cyclopropanecarboxylic acid (2-methanesulfonyl-ethyl)-amide]	< 0.5 µM
COc1ccc(-c2cccc(C#N)c2)n2nc(C3(COCc4ccccc4)CC3)nc12 [Compound 153, 3-[2-(1-Benzyloxymethyl-cyclopropyl)-8-methoxy-[1,2,4]-triazolo[1,5-a]pyridin-5-yl]-benzonitrile]	< 0.5 µM
COc1ccc(-c2ccc(C#N)cc2)n2nc(C3(C(=O)NC4CC4)CC3)nc12 [Compound 213, 1-[5-(4-Cyano-phenyl)-8-methoxy-[1,2,4]triazolo[1,5-a]pyridin-2-yl]-cyclopropanecarboxylic acid cyclopropylamide]	< 0.5 µM
COc1ccc(-c2cccc3c2CCC3=O)n2nc(C3(COC(=O)NC4CCCCC4)CC3)nc12 [Compound 240, Cyclohexyl-carbamic acid 1-[8-methoxy-5-(1-oxo-indan-4-yl)-[1,2,4]triazolo[1,5-a]pyridin-2-yl]-cyclopropylmethyl ester]	< 0.5 µM
CCCNC(=O)OCC1(c2nc3c(OC)ccc(-c4cccc5c4CCC5=O)n3n2)CC1 [Compound 233, Propyl-carbamic acid 1-[8-methoxy-5-(1-oxo-indan-4-yl)-[1,2,4]triazolo[1,5-a]pyridin-2-yl]-cyclopropylmethyl ester]	< 0.5 µM
CC(=O)c1cccc(-c2ccc(O)c3nc(C4CC4)nn23)c1 [Compound 144, 1-[3-(2-Cyclopropyl-8-hydroxy-[1,2,4]triazolo[1,5-a]pyridin-5-yl)-phenyl]-ethanone]	< 0.5 µM
COc1ccc(-c2ccc3c(c2)COC3=O)n2nc(C3(C(=O)NCc4ccccc4)CC3)nc12 [Compound 179, 1-[8-Methoxy-5-(1-oxo-1,3-dihydro-isobenzofuran-5-yl)-[1,2,4]triazolo[1,5-a]pyridin-2-yl]-cyclopropanecarboxylic acid benzylamide]	< 0.5 µM
COc1ccc(-c2cc(C#N)ccn2)n2nc(C3CC3)nc12 [Compound 145, 2-(2-Cyclopropyl-8-methoxy-[1,2,4]triazolo[1,5-a]pyridin-5-yl)-isonicotinonitrile]	0.5 to 1 µM
COc1ccc(-c2ccc3c(c2)CCC3=O)n2nc(C3(COC(=O)NC(C)C)CC3)nc12 [Compound 239, Isopropyl-carbamic acid 1-[8-methoxy-5-(1-oxo-indan-5-yl)-[1,2,4]triazolo[1,5-a]pyridin-2-yl]-cyclopropylmethyl ester]	< 0.5 µM
COc1ccc(-c2cc(F)cc(C#N)c2)n2nc(C3CC3)nc12 [Compound 164, 3-(2-Cyclopropyl-8-methoxy-[1,2,4]triazolo[1,5-a]pyridin-5-yl)-5-fluoro-benzonitrile]	< 0.5 µM
COCCNC(=O)C1(c2nc3c(OC)ccc(-c4cccc(C#N)c4)n3n2)CC1 [Compound 202, 1-[5-(3-Cyano-phenyl)-8-methoxy-[1,2,4]triazolo[1,5-a]pyridin-2-yl]-cyclopropanecarboxylic acid (2-methoxy-ethyl)-amide]	< 0.5 µM
COc1ccc(-c2ccc3c(c2)CNC3=O)n2nc(C3CC3)nc12 [Compound 171, 5-(2-Cyclopropyl-8-methoxy-[1,2,4]triazolo[1,5-a]pyridin-5-yl)-2,3-dihydro-isoindol-1-one]	< 0.5 µM
